Measured values reported in patent US20220395511A1, “COMPOSITIONS AND METHODS FOR INCREASING CELL SURFACE OXYTOCIN RECEPTOR (OXTR)” (Washington University, priority 2021, published 2022).
Entries after “also recorded” stand apart in the source; their conditions may differ. Read-outs that look alike come from different tables or passages of the source.

Tests used:
[1] = biological target: T1, WT OXTR endogenously expressed in hTERT-HM cells (Homo sapiens, UniProt P30559); test: Quantitative flow cytometry of cell surface HA-OXTR in hTERT-HM cells; type: cell-based; conditions: for decrease of baseline cell surface OXTR abundance: cycloheximide 25 μg/mL, brefeldin A 5 μg/mL
T1 construct: hTERT-immortalized human myometrial (hTERT-HM) cells, which endogenously express WT OXTR; endogenous in cells; host or cells: hTERT-HM (genome-edited: HA knock-in at the OXTR locus)
T1 sequence (P30559 1-389): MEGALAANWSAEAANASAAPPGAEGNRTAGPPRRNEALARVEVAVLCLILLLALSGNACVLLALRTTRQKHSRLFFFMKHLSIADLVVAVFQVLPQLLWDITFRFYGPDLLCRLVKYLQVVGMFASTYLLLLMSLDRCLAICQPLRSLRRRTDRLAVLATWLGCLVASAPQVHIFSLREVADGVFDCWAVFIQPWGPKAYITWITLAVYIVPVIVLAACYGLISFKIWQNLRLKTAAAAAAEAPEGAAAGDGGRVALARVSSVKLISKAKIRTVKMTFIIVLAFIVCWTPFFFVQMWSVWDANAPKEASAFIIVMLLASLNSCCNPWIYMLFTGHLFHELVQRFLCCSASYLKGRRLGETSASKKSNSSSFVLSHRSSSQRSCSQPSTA
Method: These experiments were performed in the hTERT-immortalized human myometrial cell line, which was modified to introduce an N-terminal HA tag upstream of OXTR. […] OXTR was quantified by performing flow cytometry with a fluorescent antibody against HA. TCOT=TC-OT 39 ((2S)—N-[[4-[(4,10-dihydro-1-methylpyrazolo[3,4-b][1,5]benzodiazepin-5(1H)-yl)carbonyl]-2-methylphenyl]methyl]-2-[(hexahydro-4-methyl-1H-1,4-diazepin-1-yl)thioxomethyl]-1-pyrrolidinecarboxamide), partial OXTR agonist. CON=conivaptan (N-[4-(2-methyl-4,5-dihydro-3H-imidazo[4,5-d][1]benzazepine-6-carbonyl)phenyl]-2-phenylbenzamide; also known as YM087), vasopressin inhibitor. TASP=TASP 0390325 (2-(3-Chloro-4-fluorophenyl)-N-(1-methylethyl)-6-[3-(4-morpholinyl)propoxy]-4-oxo-pyrido[2,3-d]pyrimidine-3(4H)-acetamide hydrochloride), vasopressin inhibitor. WAY=WAY 267464 (4-(3,5-Dihydroxybenzyl)-N-(2-methyl-4-[(1-methyl-4,10-dihydropyrazolo[3,4-b][1,5]benzodiazepin-5(1H)-yl)carbonyl]benzyl)piperazine-1-carboxamide), OXTR agonist. TOL=tolvaptan (N-(4-{[(5R)-7-Chloro-5-hydroxy-2,3,4,5-tetrahydro-1H-1-benzazepin-1-yl]carbonyl}-3-methylphenyl)-2-methylbenzamide; also known as OPC41061), vasopressin inhibitor. OPC=OPC 21268 (N-[3-[4-[[4-(3,4-dihydro-2-oxo-1(2H)-quinolinyl)-1-piperidinyl]carbonyl]phenoxy]propyl]-acetamide), vasopressin inhibitor. SSR=SSR 149415 ((2S,4R)-1-[(3R)-5-Chloro-1-[(2,4-dimethoxyphenyl)sulfonyl]-2,3-dihydro-3-(2-methoxyphenyl)-2-oxo-1H-indol-3-yl]-4-hydroxy-N,N-dimethyl-2-pyrrolidinecarboxamide), vasopressin inhibitor. SR=SR49059 ((2S)-1-[[(2R,3S)-5-Chloro-3-(2-chlorophenyl)-1-[(3,4-dimethoxyphenyl)sulfonyl]-2,3-dihydro-3-hydroxy-1H-indol-2-yl]carbonyl]-2-pyrrolidinecarboxamide), vasopressin inhibitor. L371=L371,257 (1-[1-[4-(1-acetylpiperidin-4-yl)oxy-2-methoxybenzoyl]piperidin-4-yl]-4H-3,1-benzoxazin-2-one), OXTR antagonist.
Because specific antibodies to OXTR are not commercially available, CRISPR-Cas9 was used to introduce an HA tag at the N-terminus of OXTR in the hTERT-HM cell line. […]
To determine the mechanism of action of SR49059 and L371,257, hTERT-HM cells were treated for 12 h with cycloheximide (25 μg/mL), which inhibits protein translation, and brefeldin A (5 μg/mL), which blocks protein transport from the endoplasmic reticulum to the Golgi.
The Genome Engineering and iPSC Center at Washington University in St Louis used CRISPR-Cas9 to introduce an HA tag at the N-terminus of the OXTR gene in hTERT-HM cells. After drug incubation, cells were detached with TrypLE Express (Thermo Fisher) before flow cytometry.

[2] = biological target: T2, WT OXTR (Homo sapiens, UniProt P30559); test: Quantitative flow cytometry of cell surface WT HA-OXTR-GFP in transfected HEK293T cells; type: cell-based; conditions: for more surface WT OXTR than vehicle-treated cells: HEK293T, WT HA-OXTR-GFP, 10 μM, 16 h
T2 construct: expressed in transfected cells; host or cells: HEK293T (transient)
T2 sequence (P30559 1-389): T1 sequence (P30559 1-389)

[3] = biological target: T3, WT OXTR in hTERT-HM cells (Homo sapiens, UniProt P30559); test: Oxytocin-induced IP1 production in hTERT-HM cells; type: cell-based; conditions: for increase of maximal IP1 production: hTERT-HM, N=5 (FIG. 8D)
T3 construct: hTERT-immortalized human myometrial (hTERT-HM) cells, which endogenously express WT OXTR; endogenous in cells; host or cells: hTERT-HM
T3 sequence (P30559 1-389): T1 sequence (P30559 1-389)

[4] = biological target: T4, OXTR (Homo sapiens, UniProt P30559); conditions: in words, cited from earlier work
T4 sequence (P30559 1-389): T1 sequence (P30559 1-389)

[5] = hTERT-HM, HA-OXTR, 10 μM, 16 h (overnight)

C[C@@H]1C[C@@H]([C@H](O)CC2CC(=O)NC(=O)C2)C(=O)[C@@H](C)C1 [Cycloheximide]
decrease of baseline cell surface OXTR abundance ([1]; hTERT-HM, 12 h): 18%

COc1cc(OC2CCN(C(C)=O)CC2)ccc1C(=O)N1CCC(N2C(=O)OCc3ccccc32)CC1 [L371,257, 1-[1-[4-(1-acetylpiperidin-4-yl)oxy-2-methoxybenzoyl]piperidin-4-yl]-4H-3,1-benzoxazin-2-one]
more surface WT OXTR than vehicle-treated cells [2]: 170% | effect on cell surface OXTR in cells also treated with brefeldin A [1]: no effect | effect on cell surface OXTR in hTERT-HM cells [1]: greatest effect of all the candidate compounds | increase of cell surface OXTR abundance [1]: 2.9 fold | increase of surface OXTR in cells treated with cycloheximide [1]: 20% | increase of surface OXTR localization after 4 h of treatment [1]: more than twofold | surface OXTR localization at 48 h of treatment [1]: remained high | treatment time at which surface OXTR reached a plateau [1]: 6 h | increase of maximal IP1 production [3]: 35%

CC(=O)NCCCOc1ccc(C(=O)N2CCC(N3C(=O)CCc4ccccc43)CC2)cc1 [OPC21268, N-[3-[4-[[4-(3,4-dihydro-2-oxo-1(2H)-quinolinyl)-1-piperidinyl]carbonyl]phenoxy]propyl]-acetamide]
reported OXTR affinity [4]: medium OXTR affinity

Cc1ccccc1C(=O)Nc1ccc(C(=O)N2CCC[C@@H](O)c3cc(Cl)ccc32)c(C)c1 [OPC41061, N-(4-{[(5R)-7-Chloro-5-hydroxy-2,3,4,5-tetrahydro-1H-1-benzazepin-1-yl]carbonyl}-3-methylphenyl)-2-methylbenzamide]
effect on cell surface OXTR in hTERT-HM cells [1, 5]: increased

COc1ccc(S(=O)(=O)N2c3ccc(Cl)cc3[C@](O)(c3ccccc3Cl)[C@@H]2C(=O)N2CCC[C@H]2C(N)=O)cc1OC [SR49059, (2S)-1-[[(2R,3S)-5-Chloro-3-(2-chlorophenyl)-1-[(3,4-dimethoxyphenyl)sulfonyl]-2,3-dihydro-3-hydroxy-1H-indol-2-yl]carbonyl]-2-pyrrolidinecarboxamide]
effect on cell surface WT OXTR ([2]; HEK293T transfected with WT OXTR): robustly increased | more surface WT OXTR than vehicle-treated cells [2]: 170% | treatment time at which surface OXTR reached a plateau ([1]; hTERT-HM time course): 6 h | effect on cell surface OXTR in hTERT-HM cells [1, 5]: robustly increased | increase of cell surface OXTR abundance ([1]; hTERT-HM, 10 μM, 16 h): 2.3 fold | increase of surface OXTR localization after 4 h of treatment ([1]; hTERT-HM, 4 h): more than twofold | effect on cell surface OXTR in cells also treated with cycloheximide ([1]; hTERT-HM, 12 h, 10 μM with cycloheximide 25 μg/mL): no effect | effect on cell surface OXTR in cells also treated with brefeldin A ([1]; hTERT-HM, 12 h, with brefeldin A 5 μg/mL): no effect | surface OXTR localization at 48 h of treatment ([1]; hTERT-HM, 48 h): remained high | increase of maximal IP1 production [3]: 37% | increase of maximal oxytocin response (IP1 accumulation) ([3]; human myometrial (hTERT-HM) cells, 10 μM overnight, N=3 (FIG. 2)): 12% | reported OXTR affinity [4]: medium OXTR affinity

COc1ccc(S(=O)(=O)N2C(=O)[C@@](c3ccccc3OC)(N3C[C@H](O)C[C@H]3C(=O)N(C)C)c3cc(Cl)ccc32)c(OC)c1 [SSR149415, (2S,4R)-1-[(3R)-5-Chloro-1-[(2,4-dimethoxyphenyl)sulfonyl]-2,3-dihydro-3-(2-methoxyphenyl)-2-oxo-1H-indol-3-yl]-4-hydroxy-N,N-dimethyl-2-pyrrolidinecarboxamide]
reported OXTR affinity [4]: medium OXTR affinity

CC(C)NC(=O)Cn1c(-c2ccc(F)c(Cl)c2)nc2ncc(OCCCN3CCOCC3)cc2c1=O.Cl [TASP0390325, 2-(3-Chloro-4-fluorophenyl)-N-(1-methylethyl)-6-[3-(4-morpholinyl)propoxy]-4-oxo-pyrido[2,3-d]pyrimidine-3(4H)-acetamide hydrochloride]
reported OXTR affinity ([4]; hydrochloride): extremely low affinity; also recorded: antagonist; low

Cc1cc(C(=O)N2Cc3cnn(C)c3Nc3ccccc32)ccc1CNC(=O)N1CCC[C@H]1C(=S)N1CCCN(C)CC1 [TCOT39, (2S)-N-[[4-[(4,10-dihydro-1-methylpyrazolo[3,4-b][1,5]benzodiazepin-5(1H)-yl)carbonyl]-2-methylphenyl]methyl]-2-[(hexahydro-4-methyl-1H-1,4-diazepin-1-yl)thioxomethyl]-1-pyrrolidinecarboxamide]
effect on cell surface OXTR in hTERT-HM cells [1, 5]: decreased

Cc1cc(C(=O)N2Cc3cnn(C)c3Nc3ccccc32)ccc1CNC(=O)N1CCN(Cc2cc(O)cc(O)c2)CC1 [WAY26746, 4-(3,5-Dihydroxybenzyl)-N-(2-methyl-4-[(1-methyl-4,10-dihydropyrazolo[3,4-b][1,5]benzodiazepin-5(1H)-yl)carbonyl]benzyl)piperazine-1-carboxamide]
effect on cell surface OXTR in hTERT-HM cells [1, 5]: no effect

Cc1nc2c([nH]1)CCN(C(=O)c1ccc(NC(=O)c3ccccc3-c3ccccc3)cc1)c1ccccc1-2 [YM087, N-[4-(2-methyl-4,5-dihydro-3H-imidazo[4,5-d][1]benzazepine-6-carbonyl)phenyl]-2-phenylbenzamide]
effect on cell surface OXTR in hTERT-HM cells [1, 5]: significantly decreased | reported OXTR affinity [4]: medium OXTR affinity

C[C@H]1CCC/C=C/[C@@H]2C[C@H](O)C[C@H]2[C@H](O)/C=C/C(=O)O1 [brefeldin A]
decrease of baseline cell surface OXTR abundance ([1]; hTERT-HM, 12 h): 62%
